Test results as given in publication PMC12276035, “Novel Para‐Phenylenediamine‐Based Derivatives as Receptor Tyrosine Kinase‐like Orphan Receptor 1 (ROR1) Inhibitors: An In Vitro Preliminary Characterization” (Chemmedchem, 2025).
Like-named read-outs stand apart in the source and are kept apart here.

Key:
[1] = target: T1, ROR1 kinase domain (Homo sapiens, UniProt Q01973); assay: SPR assay on ROR1 kinase domain; type: binding
T1 construct: recombinant human ROR1 protein (aa 453‐783, His&GST Tag); His; GST; purchased Elabscience
T1 sequence (Q01973 453-783): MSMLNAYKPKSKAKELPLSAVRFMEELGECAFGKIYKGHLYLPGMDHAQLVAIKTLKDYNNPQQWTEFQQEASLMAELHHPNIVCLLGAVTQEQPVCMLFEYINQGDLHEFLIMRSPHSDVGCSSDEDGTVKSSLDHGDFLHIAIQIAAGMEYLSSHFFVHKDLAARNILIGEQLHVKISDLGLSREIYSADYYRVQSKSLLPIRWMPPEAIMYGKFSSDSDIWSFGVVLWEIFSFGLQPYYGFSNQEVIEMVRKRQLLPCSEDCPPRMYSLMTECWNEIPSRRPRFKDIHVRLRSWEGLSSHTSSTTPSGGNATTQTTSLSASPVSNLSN
Description: We performed molecular docking experiments to explore the binding mode of novel derivatives using the crystallographic structure of the protein co‐complexed with ponatinib, a known inhibitor of ROR1 (PDB code: 6TU9).^[ [30] ^] […] To evaluate the affinity of the synthesized molecules (10, 13, 14, 17–21, 26–29) for the protein counterpart, SPR assay was performed against kinase domain ROR1. Protein immobilization was achieved using the amide coupling method, and the molecules were tested at 10 different concentrations, ranging from 0 to 100 μM. Ponatinib was used as a positive control^[ [30] ^] (Table 1 ).
SPR spectroscopy analyses were conducted to evaluate the binding affinity of the synthesized compounds against ROR1 receptor using a Biacore T200 optical biosensor equipped with research‐grade CM5 sensor chips (Cytiva, Marlborough, USA). ROR1 kinase domain was immobilized on the CM5 sensor chip surface following standard amine‐coupling protocols. Specifically, kinasic domain was immobilized at pH 4.5 10 mM CH3COONa using a flow rate of 10 μL min^−1, achieving a density of around 20 kRU.
For the experiments, surfaces of ROR1, along with an unmodified reference surface, were prepared for simultaneous analyses. […] The compounds were injected in a series of concentrations (1:2 dilution, 10 different concentrations), spanning from 0 to 100 μM. The concentration series were prepared in 96‐well plates. SPR experiments were conducted at 25 °C, with a flow rate of 20 μL min^−1, allowing for 90 s of association monitoring and 400 s of dissociation monitoring. Changes in mass, reflective of the binding response, were recorded as resonance units (RU). K D values were determined using the Biaevaluation software performing a global fit of the double‐referenced association and dissociation data to a 1:1 interaction model^[ [43] ^] (see Figure S38, Supporting Information).

[2] = system: SH‐SY5Y cells; assay: MTT cell viability assay, SH‐SY5Y; type: cell-based; details: Homo sapiens, cytotoxicity, treated for 72 h, read-out: EC50 ± SD SH‐SY5Y
Description: (§1) Cytotoxicity studies, assessing the activity of the synthetized compounds, were performed only on the molecules showing the best binding profile in the SPR assay. MTT test was performed on two cell lines known for overexpressing ROR1, particularly MTT assays were conducted on JeKo‐1 (human mantle cell lymphoma) and SH‐SY5Y (neuroblastoma), exposing them to different concentrations of compounds for 72 h (Table 2 ). […] This increased effectiveness is likely due to the high expression of the target protein in leukemia and other hematologic malignancies. […] A key structural difference in 18 and 19 compared to active compounds is the absence of the trifluoromethyl group on the aromatic ring. Indeed, the removal of the trifluoromethyl group (18) or the incorporation of an electron‐donating substituent (19) alters the interaction with the ATP‐binding pocket.
The neuroblastoma SH‐SY5Y cells, a human neuroblastoma cell line of neural crest origin, were obtained from ATCC and were grown in DMEM supplemented with 10% v/v fetal bovine serum, 2 mM L‐glutamine, 100 U mL^−1 penicillin, and 0.1 mg mL^−1 streptomycin.
(§2) Cell viability was established by measuring mitochondrial metabolic activity with MTT. In brief, SH‐SY5Y (20 × 10^3 cells/well) and JeKo‐1 (10 × 10^3 cells/well) were plated into 96‐well plates for 24 h, then the compounds (1.56–50 μM) were added. […], cells were replaced with a fresh medium containing 0.5 mg mL^−1 MTT.^[ [45] ^] Cells were incubated for 1–3 h at 37 °C, then the medium was discarded, and formazan blue crystals in the cells dissolved with 100 μL per well of a solution containing isopropanol/HCl 0.1 M. The absorbance was measured at 570 nm using a microplate reader (Multiskan Go, Thermo Scientific, Waltham, MA, USA). Cell viability was expressed as a percentage relative to the untreated cells cultured in medium with 0.1% DMSO and set to 100%, whereas 10% DMSO was used as positive control and set to 0% of viability. The EC50 values were calculated using GraphPad Prism 8.0 software by nonlinear regression of dose‐response inhibition.

[3] = system: JeKo‐1 cells; assay: MTT cell viability assay, JeKo‐1; type: cell-based; details: Homo sapiens, cytotoxicity, treated for 72 h, read-out: EC50 ± SD JeKo‐1
Description: as §1
The JeKo‐1 mantle cell lymphoma (MCL) cell line, derived from mantle cell lymphoma of B‐cell lineage, was obtained from ATCC and was grown in RPMI supplemented with 10% v/v fetal bovine serum, 2 mM L‐glutamine, 100 U mL^−1 penicillin, and 0.1 mg mL^−1 streptomycin.
as §2

[4] = system: JeKo‐1 cells; assay: Annexin V‐FITC/PI staining apoptosis, flow cytometry; type: cell-based, human; details: JeKo‐1, 20 μM, 72 h, early and late apoptosis
Text: This observation aligns with previous studies reporting that ROR1 is highly expressed in B‐cell malignancies, including mantle cell lymphoma, where it plays a crucial role in survival signaling and resistance to apoptosis.^[ [10], [32] ^] Given the higher susceptibility of JeKo‐1 cells to the inhibitor, we selected this model for further apoptotic analysis. However, for completeness, apoptotic data for the SH‐SY5Y cell line are also provided in the Supporting Information (Figure S39, Supporting Information). Specifically, cells were incubated with compounds 17, 20, or 29 (20 μM) for 72 h and a flow cytometry analysis using Annexin V/PI staining was performed. After treatment, a very strong increase in the apoptotic response was observed, in both early and late apoptotic populations compared to the negative control (Figure 4 ). […] These findings are in accordance with the literature and further support the potential of ROR1 inhibition in promoting cell death in mantle cell lymphoma.^[ [33] ^]
Figure 4 Proapoptotic activity of compounds 17, 20, and 29 (20 μM) on JeKo‐1 cells treated for 72 h. A) Representative flow cytometry plots using Annexin V‐FITC/PI staining for apoptosis. B) Related quantitative analysis is reported. Data are expressed as a percentage of live, apoptotic, and necrotic cells. Results are shown as mean ± standard deviation (SD) from three independent experiments. *** denote p < 0.001 versus Ctrl.
Apoptosis of the cells was assessed using annexin V‐FITC/PI reagents. JeKo‐1 cells (60 × 10^3 cells/well) were seeded into 24‐well plates and incubated for 72 h with compounds (20 and 10 μM). After treatment, the collected cells were resuspended in a 100 μL assay buffer, then 5 Annexin V‐FITC and 1 PI reagents were added following incubation for 20 min at room temperature according to the manufacturer's protocol (Dead Cell Apoptosis Kits with Annexin V for Flow Cytometry, Thermo Fisher Scientific). Cells were analyzed with a Becton Dickinson FACScan flow cytometer using the Cell Quest software, version 4 (Franklin Lakes, NJ, USA).^[ [46] ^]

[5] = SPR, KD ± SD, 0 to 100 μM, 25 °C, n.b. = no binding
[6] = SPR, KD ± SD, 0 to 100 μM, 25 °C, n.b. = no binding, read-out: Kinase domain KD

SMILES	Kinase domain KD [1, 5]	EC50 [2] [µM]	EC50 [3] [µM]	Kd [1, 6] [µM]	also measured
N#CCCNc1ccc(NC(=O)NCc2ccc(-c3ccccc3)cc2)c(C(F)(F)F)c1 [Compound 10]	n.b.				
O=C(NCc1ccc(-c2ccccc2)cc1)Nc1ccc(NCc2ccncc2)cc1C(F)(F)F [Compound 13]	n.b.				
N#CCCNc1ccc(NC(=O)NCc2ccc(C(F)(F)F)cc2)cc1 [Compound 14]	n.b.				
O=C(NCc1ccc(-c2ccccc2)cc1)Nc1ccc(NCC2CCNCC2)cc1 [Compound 18]		> 50	> 50	18.4 ± 3.14	
COc1cc(NCC2CCNCC2)ccc1NC(=O)NCc1ccc(-c2ccccc2)cc1 [Compound 19]		> 50	> 50	15 ± 2.47	
NCCCNc1ccc(NC(=O)NCc2ccc(-c3ccccc3)cc2)c(C(F)(F)F)c1 [Compound 20]		14.2 ± 4.81	11.3 ± 3.15	16.7 ± 2.86	apoptotic cells [4]: 94.50 ± 3.12%
Nc1ccc(CNc2ccc(NC(=O)NCc3ccc(-c4ccccc4)cc3)c(C(F)(F)F)c2)cc1 [Compound 21]	n.b.				
Nc1ccc(CNc2ccc(NS(=O)(=O)c3ccc(-c4ccccc4)cc3)c(C(F)(F)F)c2)cc1 [Compound 26]	n.b.				
O=S(=O)(Nc1ccc(NCC2CCNCC2)cc1C(F)(F)F)c1ccc(-c2ccccc2)cc1 [Compound 27]	n.b.				
O=C(Nc1ccc(NCC2CCNCC2)cc1C(F)(F)F)c1ccc(-c2ccccc2)cc1 [Compound 28]	n.b.				
O=C(NCc1ccc(-c2ccccc2)cc1)Nc1ccc(NC2CCNCC2)cc1C(F)(F)F [Compound 29]		18.5 ± 2.65	13.9 ± 2.75	13.4 ± 1.92	apoptotic cells [4]: 73.15 ± 2.76%
Cc1ccc(C(=O)Nc2ccc(CN3CCN(C)CC3)c(C(F)(F)F)c2)cc1C#Cc1cnc2cccnn12 [Ponatinib, 3‐(2‐imidazo[1,2‐b]pyridazin‐3‐ylethynyl)‐4‐methyl‐N‐[4‐[(4‐methylpiperazin‐1‐yl)methyl]‐3‐(trifluoromethyl)phenyl]benzamide, reference compound]		4.25 ± 3.92	1.69 ± 1.03		Kd [1]: 2.9 ± 0.85 µM
